Measurements as given in patent publication US20140024030A1, “PRESELECTION OF SUBJECTS FOR THERAPEUTIC TREATMENT WITH OXYGEN SENSITIVE AGENTS BASED IN HYPOXIC STATUS” (priority 2010, published 2014).
Like-named read-outs stand apart in the source and are kept apart here.

Legend:
[1] = test system: HCT116 human colon carcinoma xenograft; experiment: HCT116 xenograft model in nude mice (hypoxic tumor); type: in vivo; conditions: for efficacy at slowing tumor growth in HCT116 (high hypoxia) versus 786O (low hypoxia) tumors: comparison of HCT116 and 786O xenografts in nude mice
Description: Human tumor cell lines HCT116 (ATCC #CRL-247; Schroy P C, et al. Cancer 76: 201-209, 1995) and 786-O (ATCC #CRL-1932; Williams R D, et al. In Vitro 12: 623-627, 1976), were obtained from the American Type Culture Collection (Manassus, Va., USA) were cultured using routine methods until a sufficient number of cells were obtained for implantation. Studies were conducted on animals between 7 and 12 weeks of age at implantation. To implant HCT116 tumor cells into nude mice, the cells were trypsinized, washed in PBS and resuspended at a concentration of 75×10^6 cells/ml in McCoy's modified medium with 50% of BD Matrigel® Basement Membrane Matrix (BD Biosciences®, Bedford, Mass., USA). To implant 786-O tumor cells into nude mice, the cells were trypsinized as above, washed in PBS and resuspended at a concentration of 75×10^6 cells/ml in RPMI 1640 medium with 50% of BD Matrigel® Basement Membrane Matrix. Using a 27 gauge needle and 1 cc syringe, 0.1 ml of the cell suspension was injected into the corpus adiposum of nude mice. […] The location permits palpation and measurement of the tumors using external calipers. Tumor volumes (V) were calculated by caliper measurement of the width (W), length (L) and thickness (T) of tumors using the following formula: V=0.5236×(L×W×T).

[2] = test system: metastatic pancreatic cancer; conditions: cited from earlier work
[3] = test system: metastatic colorectal cancer; conditions: bevacizumab plus 5-FU/Leucovorin vs 5-FU/Leucovorin alone; not statistically significant; cited from earlier work
renal cancer = conditions: cited from earlier work; for patients with decreased tumor size: arms: bevacizumab and interferon-alpha vs interferon-alpha alone
[4] = test system: 786-O human renal carcinoma xenograft; experiment: 786-O xenograft model in nude mice (low hypoxia tumor); type: in vivo
Description: Human tumor cell lines HCT116 (ATCC #CRL-247; Schroy P C, et al. Cancer 76: 201-209, 1995) and 786-O (ATCC #CRL-1932; Williams R D, et al. In Vitro 12: 623-627, 1976), were obtained from the American Type Culture Collection (Manassus, Va., USA) were cultured using routine methods until a sufficient number of cells were obtained for implantation. Studies were conducted on animals between 7 and 12 weeks of age at implantation. To implant HCT116 tumor cells into nude mice, the cells were trypsinized, washed in PBS and resuspended at a concentration of 75×10^6 cells/ml in McCoy's modified medium with 50% of BD Matrigel® Basement Membrane Matrix (BD Biosciences®, Bedford, Mass., USA). To implant 786-O tumor cells into nude mice, the cells were trypsinized as above, washed in PBS and resuspended at a concentration of 75×10^6 cells/ml in RPMI 1640 medium with 50% of BD Matrigel® Basement Membrane Matrix. Using a 27 gauge needle and 1 cc syringe, 0.1 ml of the cell suspension was injected into the corpus adiposum of nude mice. The corpus adiposum is a fat body located in the ventral abdominal vicera in the right quadrant of the abdomen at the juncture of the os coxae (pelvic bone) and the os femoris (femur). The location permits palpation and measurement of the tumors using external calipers. Tumor volumes (V) were calculated by caliper measurement of the width (W), length (L) and thickness (T) of tumors using the following formula: V=0.5236×(L×W×T). Animals were randomized into treatment groups so that the average tumor volumes of each group were similar at the start of dosing.
A tumor model in which the tumors have relatively high and low levels of LDH5, indicating high and low levels of hypoxia, using human tumor cell lines HCT116 and 786-O was established as set forth in the previous example.
As above, HCT116 and 786-O cells were cultured and implanted into nude mice using the methods in the previous example. Tumor growth was measured using calipers. Prior to treatment with the various agents, tumors were permitted to develop in vivo until they reached approximately 150 mm^3 in volume, which typically required 2-3 weeks following implantation. Animals were randomized into treatment groups so that the average tumor volumes of each group were similar at the start of dosing.
Tumor volume was monitored throughout the course of the study, until up to about 40 days from the date of tumor implantation. The exact number of days of the study depended on a number of factors including, for example, the number of days from implantation for the tumors to reach the desired volume.

[5] = test system: metastatic colorectal cancer; conditions: oxaliplatin stratum; arms: panitumumab, bevacizumab and chemotherapy vs bevacizumab and chemotherapy alone; cited from earlier work
[6] = test system: metastatic colorectal cancer; conditions: arms: bevacizumab plus 5-FU/Leucovorin vs IFL regimen alone; cited from earlier work
[7] = test system: phosphorylated RPS6 (ribosomal protein S6); conditions: TSC1-deficient cells; cited from earlier work
[8] = test system: metastatic colorectal cancer (mCRC); conditions: cited from earlier work
[9] = test system: metastatic colorectal cancer (mCRC); conditions: cited from earlier work; remark: listed apart in the source
pancreatic cancer = conditions: PTK787 orally daily with gemcitabine, cited from earlier work
[10] = test system: mCRC pretreated with 5-FU/irinotecan; conditions: cited from earlier work
[11] = test system: advanced renal cell carcinoma (RCC); conditions: cited from earlier work; for progression-free survival: P=0.0001
treatment-naïve RCC = conditions: final analysis; arms: sunitinib vs IFN-α; cited from earlier work
[12] = test system: renal cell carcinoma (RCC); conditions: 140 subjects with elevated LDH; temsirolimus vs interferon; log-rank p<0.005; cited from earlier work
[13] = test system: renal cell carcinoma cell lines; conditions: in vitro; cited from earlier work
[14] = test system: advanced pancreatic cancer; conditions: Phase III, combination with Gemcitabine; cited from earlier work
[15] = test system: advanced pancreatic cancer; conditions: Phase II, combination chemotherapy with Gemcitabine; cited from earlier work
[16] = test system: locally advanced, unresectable or metastatic pancreatic cancer; conditions: 100 mg cohort, arms: gemcitabine plus erlotinib vs gemcitabine alone, cited from earlier work
hepatocellular carcinoma = conditions: cited from earlier work
[17] = test system: advanced renal cell carcinoma; conditions: cited from earlier work
[18] = test system: metastatic malignancies including renal cell carcinoma; conditions: cited from earlier work
[19] = arms: temsirolimus alone vs interferon-alpha

Compound: bevacizumab: recombinant humanized monoclonal IgG1 antibody that binds to and inhibits human vascular endothelial growth factor (VEGF)
- tumor growth versus control ([1]; bevacizumab 4 mg/kg i.p., p=0.0424): reduced the growth of the tumor as compared to control
- efficacy at slowing tumor growth in HCT116 (high hypoxia) versus 786O (low hypoxia) tumors [1]: more effective at slowing tumor growth in tumors with high levels of hypoxia
- tumor growth versus control ([1]; lower dose of bevacizumab (1 mg/kg) i.p., p=0.1274): small trend to decreased tumor growth
- progression free survival HR ([2]; bevacizumab vs placebo, both with gemcitabine and erlotinib, P=0.0002): 0.73
- median overall survival ([2]; bevacizumab, gemcitabine and erlotinib arm (306 patients)): 7.1 months
- improvement in median survival [3]: 29%
- patients with decreased tumor size (renal cancer): 30%
- increase in progression-free survival time (renal cancer; interferon-alpha with bevacizumab vs interferon-alpha alone): about 5 months
- tumor burden versus control ([4]; higher dose of bevacizumab (4 mg/kg) i.p., p=0.011): greatest tumor burden
- tumor burden versus control ([4]; low dose bevacizumab (1 mg/kg) i.p., p=0.437): no significant difference in tumor burden
- median PFS [5]: 10.5 months
- progression-free survival [6]: 8.7 months

Compound: Cn1c(=O)n(-c2ccc(C(C)(C)C#N)cc2)c2c3cc(-c4cnc5ccccc5c4)ccc3ncc21 [BEZ235]
- efficacy at slowing tumor growth in HCT116 (high hypoxia) versus 786O (low hypoxia) tumors [1]: not found to work better in the tumors with a higher level of hypoxia
- levels of phosphorylated RPS6 [7]: significantly reduce the levels of phosphorylated RPS6

Compound: Clc1ccc(Nc2nnc(Cc3ccncc3)c3ccccc23)cc1 [PTK787, N-(4-chlorophenyl)-4-(pyridin-4-ylmethyl)phthalazin-1-amine]
- tumor growth versus control ([1]; 50 mg/kg 5x/week P.O., p=0.1209): reduced the growth of the tumor as compared to control
- efficacy at slowing tumor growth in HCT116 (high hypoxia) versus 786O (low hypoxia) tumors [1]: more effective at slowing tumor growth in tumors with high levels of hypoxia
- PFS HR ([8]; CONFIRM 1 - High LDH, N 316, PTK787 1250 mg/day vs placebo): 0.61
- PFS HR ([8]; CONFIRM 1 - Low LDH, N 852): 0.93
- PFS HR ([9]; All CONFIRM 1 & 2 High LDH Patients, N 566): 0.62
- PFS HR ([9]; All CONFIRM 1 & 2 Patients, N 2023): 0.82
- duration of stable disease (pancreatic cancer): 2-6 months
- patients with stable disease as the best response (pancreatic cancer; six of eleven patients): 55%
- tumor burden versus control ([4]; 50 mg/kg 5x/week P.O., p=0.7805): no difference in tumor burden
- tumor burden versus control ([4]; XL765 study (FIG. 4B), 30 mg/kg 5x/week P.O., p=0.7682): no difference in tumor burden
- tumor burden versus control ([4]; erlotinib study (FIG. 5B), 1x/week P.O., p=0.8548): no difference in tumor burden
- PFS HR ([10]; CONFIRM 2 - High LDH, N 250, PTK787 1250 mg/day vs placebo): 0.63
- PFS HR ([10]; CONFIRM 2 - Low LDH, N 605): 0.95

Compound: interferon-alpha
- progression-free survival [11, 19]: 3.1 months
- median overall survival ([11]; arms: temsirolimus alone vs interferon-alpha, P=0.0078): 7.3 months
- median OS (treatment-naïve RCC): 94.9 weeks
- patients with decreased tumor size (renal cancer): 12%
- survival [12]: 4.2 months

Compound: CO[C@H]1C[C@@H]2CC[C@@H](C)[C@@](O)(O2)C(=O)C(=O)N2CCCC[C@H]2C(=O)O[C@H]([C@H](C)C[C@@H]2CC[C@@H](OC(=O)C(C)(CO)CO)[C@H](OC)C2)CC(=O)[C@H](C)/C=C(\C)[C@@H](O)[C@@H](OC)C(=O)[C@H](C)C[C@H](C)/C=C/C=C/C=C/1C [temsirolimus]
- efficacy at slowing tumor growth in HCT116 (high hypoxia) versus 786O (low hypoxia) tumors [1]: not found to work better in the tumors with a higher level of hypoxia
- activity of mTOR [13]: inhibited the activity of mTOR
- levels of HIF-1, HIF-2 alpha and VEGF [13]: reduced levels of the hypoxia-inducible factors HIF-1 and HIF-2 alpha, and the vascular endothelial growth factor
- progression-free survival [11, 19]: 5.5 months
- overall survival versus interferon-alpha alone ([11]; combination of temsirolimus and interferon-alpha): did not result in a significant increase in overall survival
- increase in median overall survival ([11]; temsirolimus compared to interferon-alpha): 49%
- survival [12]: 6.9 months

Compound: CNC(=O)c1ccccc1Sc1ccc2c(/C=C/c3ccccn3)n[nH]c2c1 [Axitinib, N-Methyl-2-[[3-[(E)-2-pyridin-2-ylethenyl]-1H-indazol-6-yl]sulfanyl]benzamide]
- survival rates versus Gemcitabine alone [14]: no evidence of improved survival rates
- response [15]: good response

Compound: COc1cc(Nc2nc3ccccc3nc2NS(=O)(=O)c2ccc(NC(=O)c3ccc(C)c(OC)c3)cc2)cc(OC)c1 [XL765]
- tumor growth rate versus control ([1]; XL765 30 mg/kg 5x/week P.O., p=0.009): reduced the growth rate of the tumor as compared to control
- efficacy at slowing tumor growth in HCT116 (high hypoxia) versus 786O (low hypoxia) tumors [1]: more effective at slowing tumor growth in tumors with high levels of hypoxia

Compound: Nc1ccn([C@@H]2O[C@H](CO)[C@@H](O)C2(F)F)c(=O)n1 [gemcitabine]
- progression free survival ([16]; p=0.006): 3.5 months
- survival ([16]; p=0.028): 6.0 months

Compound: CNC(=O)c1cc(Oc2ccc(NC(=O)Nc3ccc(Cl)c(C(F)(F)F)c3)cc2)ccn1 [sorafenib]
- disease control rate (DCR) (hepatocellular carcinoma; disease stabilization for at least 28 days): 43.48%
- time to progression HR (hepatocellular carcinoma; independent radiological review, sorafenib vs placebo, p=0.000007): 0.58
- overall survival HR (hepatocellular carcinoma; sorafenib 400 mg twice daily vs placebo, p=0.00058): 0.69
- efficacy at slowing tumor growth in HCT116 (high hypoxia) versus 786O (low hypoxia) tumors [1]: not found to work better in the tumors with a higher level of hypoxia
- median progression free survival ([17]; 769 patients, sorafenib 400 mg twice daily (N=384)): 167 days
- estimated improvement in overall survival vs placebo ([17]; as of 30 Nov. 2005, 367 deaths): 30%
- median PFS ([17]; patients with no prior IL-2 or interferon therapy (N=137)): 172 days
- median overall survival ([17]; sorafenib 400 mg twice daily, 367 deaths): 19.3 months
- progression free survival HR ([17]; sorafenib vs placebo, p<0.000001): 0.44
- progression free rate ([18]; at 24 weeks, p=0.0077): 50%
- progression free survival HR ([18]; sorafenib vs placebo): 0.29
